Laboratory results as given in patent publication US20150010928A1, “MEANS AND METHODS FOR ASSESSING AN ENDOCRINE DISEASE OR DISORDER” (priority 2012, published 2015).
Counter-ions that a name gives are not always drawn. Marks after values point to notes of the source that are not given here. Values belong to the compound of their own block, whether it stands above or below them.

Test system: male rats
Experiment: Plasma metabolite profiling (GC-MS, LC-MS, SPE-LC-MS) in male rats dosed once daily over 28 days (OECD 407)
Format: in vivo, rat
Settings: for Glucose, ratio versus control / Lysophosphatidylcholine (C20:4), ratio versus control / Threonic acid, ratio versus control: male rats, plasma, low dose
Description: Each dose group in the studies consisted of five rats per sex. Additional groups of each 5 male and female animals served as controls. […] All animals of the animal population were kept under the same constant temperature (20-24±3° C.) and the same constant humidity (30-70%). The animals of the animal population were fed ad libitum. The food to be used was essentially free of chemical or microbial contaminants. Drinking water was also offered ad libitum. Accordingly, the water was free of chemical and microbial contaminants as laid down in the European Drinking Water Directive 98/83/EG. The illumination period was 12 hours light followed by 12 hours darkness (12 hours light, from 6:00 to 18:00, and 12 hours darkness, from 18:00 to 6:00). […] The test substances (compounds) in the Tables 1 to 17 below were dosed and administered as described in the Table 18.
In the morning of day 7, 14, and 28, blood was taken from the retroorbital venous plexus from fasted anaesthetized animals. From each animal, 1 ml of blood was collected with EDTA as anticoagulant. The samples were centrifuged for generation of plasma. All plasma samples were covered with a N2 atmosphere and then stored at −80° C. until analysis.
For mass spectrometry-based metabolite profiling analyses plasma samples were extracted and a polar and a non-polar (lipid) fraction was obtained. For GC-MS analysis, the non-polar fraction was treated with methanol under acidic conditions to yield the fatty acid methyl esters. Both fractions were further derivatised with O-methyl-hydroxyamine hydrochloride and pyridine to convert Oxogroups to O-methyloximes and subsequently with a silylating agent before analysis. In LC-MS analysis, both fractions were reconstituted in appropriate solvent mixtures. HPLC was performed by gradient elution on reversed phase separation columns. Mass spectrometric detection which allows target and high sensitivity MRM (Multiple Reaction Monitoring) profiling in parallel to a full screen analysis was applied as described in WO2003073464.
Steroids and their metabolites were measured by online SPE-LC-MS (Solid phase extraction-LC-MS).
Following comprehensive analytical validation steps, the data for each analyte were normalized against data from pool samples. These samples were run in parallel through the whole process to account for process variability. The significance of treatment group values specific for sex, treatmentduration and metabolite was determined by comparing means of the treated groups to the means of the respective untreated control groups using WELCH-test and quantified with treatment ratios versus control and p-values.
The identification of the most important biomarkers per toxicity pattern was done by a ranking of the analytes in the tables below. Therefore the metabolic changes in reference treatments of a given pattern (shown in the table) were compared with changes of the same metabolite in other unrelated treatments. […] The maximum absolute value of the respective TVALUE was taken to indicate the most important metabolite for the pattern.

Cholesterol (m7, high dose, Table 14b): 0.75
Choline plasmalogen No 02 (m7, high dose, Table 14b): 0.89
Lignoceric acid (C24:0) (m7, high dose, Table 14b): 0.7
Sphingomyelin (d18:1, C16:0) (m7, high dose, Table 14b): 0.68
Sphingomyelin (d18:2, C16:0) (m7, high dose, Table 14b): 0.74
erythro-Sphingosine (d18:1) (m7, high dose, Table 14b): 0.62
Cholesterol (m14, high dose, Table 14b): 0.72
Choline plasmalogen No 02 (m14, high dose, Table 14b): 0.68
Lignoceric acid (C24:0) (m14, high dose, Table 14b): 0.68
Sphingomyelin (d18:1, C16:0) (m14, high dose, Table 14b): 0.71
Sphingomyelin (d18:2, C16:0) (m14, high dose, Table 14b): 0.73
erythro-Sphingosine (d18:1) (m14, high dose, Table 14b): 0.58
Cholesterol (m28, high dose, Table 14b): 0.69
Choline plasmalogen No 02 (m28, high dose, Table 14b): 0.74
Lignoceric acid (C24:0) (m28, high dose, Table 14b): 0.67
Sphingomyelin (d18:1, C16:0) (m28, high dose, Table 14b): 0.7
Sphingomyelin (d18:2, C16:0) (m28, high dose, Table 14b): 0.63
erythro-Sphingosine (d18:1) (m28, high dose, Table 14b): 0.52
Compound: OCCNCCO [Diethanolamine]

Compound: OC(c1ccc(Cl)cc1)(c1cncnc1)c1ccccc1Cl (stereo not drawn) [Fenarimol]
Glucose, ratio versus control (day 7): 0.9
Lysophosphatidylcholine (C20:4), ratio versus control (day 7): 0.99
Threonic acid, ratio versus control (day 7): 1.37 *
Glucose, ratio versus control (day 14): 0.9 *
Lysophosphatidylcholine (C20:4), ratio versus control (day 14): 0.96 *
Threonic acid, ratio versus control (day 14): 1.3 *
Glucose, ratio versus control (day 28): 0.91 *
Lysophosphatidylcholine (C20:4), ratio versus control (day 28): 0.97 *
Threonic acid, ratio versus control (day 28): 1.34 *

3-O-Methylsphingosine (d18:1) (m7, high dose, Table 10a): 1.33
5-O-Methylsphingosine (d18:1) (m7, high dose, Table 10a): 1.43
Cysteine (m7, high dose, Table 10a): 1.81 *
Lignoceric acid (C24:0) (m7, high dose, Table 10a): 1.33
Nervonic acid (C24:cis[15]1) (m7, high dose, Table 10a): 1.37
Oleic acid (C18:cis[9]1) (m7, high dose, Table 10a): 0.83
Stearic acid (C18:0) (m7, high dose, Table 10a): 1.21
alpha-Tocopherol (m7, high dose, Table 10a): 1.37
threo-Sphingosine (d18:1) (m7, high dose, Table 10a): 1.2
Oleic acid (C18:cis[9]1) (m7, high dose, Table 10b): 0.83^
Phosphatidylcholine (C16:0, C16:0) (m7, high dose, Table 10b): 0.99^
Thyroxine (T4) (m7, high dose, Table 10b): 0.42 *
trans-4-Hydroxyproline (m7, high dose, Table 10b): 0.87 *
3-O-Methylsphingosine (d18:1) (m14, high dose, Table 10a): 1.43^
5-O-Methylsphingosine (d18:1) (m14, high dose, Table 10a): 1.67 *
Cysteine (m14, high dose, Table 10a): 2.03 *
Oleic acid (C18:cis[9]1) (m14, high dose, Table 10a): 0.88^
Stearic acid (C18:0) (m14, high dose, Table 10a): 1.2
alpha-Tocopherol (m14, high dose, Table 10a): 1.64 *
threo-Sphingosine (d18:1) (m14, high dose, Table 10a): 1.45 *
Oleic acid (C18:cis[9]1) (m14, high dose, Table 10b): 0.88 *
Thyroxine (T4) (m14, high dose, Table 10b): 0.59^
trans-4-Hydroxyproline (m14, high dose, Table 10b): 0.83 *
3-O-Methylsphingosine (d18:1) (m28, high dose, Table 10a): 2.23 *
5-O-Methylsphingosine (d18:1) (m28, high dose, Table 10a): 2.39 *
Lignoceric acid (C24:0) (m28, high dose, Table 10a): 1.79 *
Nervonic acid (C24:cis[15]1) (m28, high dose, Table 10a): 1.57 *
Oleic acid (C18:cis[9]1) (m28, high dose, Table 10a): 0.98^
Stearic acid (C18:0) (m28, high dose, Table 10a): 1.42 *
alpha-Tocopherol (m28, high dose, Table 10a): 1.74 *
threo-Sphingosine (d18:1) (m28, high dose, Table 10a): 2.2 *
Oleic acid (C18:cis[9]1) (m28, high dose, Table 10b): 0.98
Phosphatidylcholine (C16:0, C16:0) (m28, high dose, Table 10b): 0.99
Thyroxine (T4) (m28, high dose, Table 10b): 0.72
trans-4-Hydroxyproline (m28, high dose, Table 10b): 0.72 *
Cysteine (rat, in vivo): 1.37 *
Lignoceric acid (C24:0) (rat, in vivo): 1.35^
Nervonic acid (C24:cis[15]1) (rat, in vivo): 1.68^
Phosphatidylcholine (C16:0, C16:0) (rat, in vivo): 1.03^
Compound: CNCCC(Oc1ccc(C(F)(F)F)cc1)c1ccccc1 (stereo not drawn) [Fluoxetine hydrochloride]
